Key:
[1] = tested on: alcoholic fatty liver mice model; experiment: Alcoholic fatty liver mice model (Lieber-DeCarli liquid diet); assay type: in vivo, mice (C57BL/6); conditions: oral, 10 mg/kg body weight once a day for 2 weeks
Procedure: (§1) Eight-week-old black male laboratory mice (C57BL/6) were divided into: 1) control (n=8); 2) JC1-40-administered control (n=8); 3) alcohol group (n=12); and 4) JC1-40-administered alcohol group (n=12), and fed a Lieber-DeCarli liquid diet (Dyets Inc, Bethlehem, Pa., USA). The Lieber-DeCarli liquid diet in the form of powder was purchased, and then water was added thereto every morning to form a liquid-type feed such that 1 ml of the feed contained 1 kcal. The alcohol group was fed a gradually increasing amount of alcohol with an increment of 0.5% during a 2-week adaptation period, and then was fed a feed containing 5% alcohol for 5 weeks. The feed of the control included maltose dextrin instead of alcohol, and for pair-feeding, the feed included maltose dextrin in an amount providing the same calories as the calories that the amount of the feed fed to the mice of the alcohol group contained. During the 5-week ingestion of 5% alcohol, JC1-40 diluted with 0.5% carboxymethyl cellulose was orally administered once a day at a dose of 10 mg/kg body weight for 2 weeks prior to sacrificing the mice. After the 5-week alcohol feeding period was completed, the mice were fasted for 12 hours, and anesthetized to incise the abdomen, and blood and liver were removed from each mouse.

MCP-1 = MCP-1 in alcoholic fatty liver mice model (ELISA, western blotting); assay type: in vivo, mice (C57BL/6); conditions: oral, 10 mg/kg body weight once a day for 2 weeks, alcohol group
Procedure: as §1

CNC(=S)NCc1ccc(OCc2ccccc2)cc1 [Compound 40, 1-(4-benzyloxy-benzyl)-3-methyl-thiourea]
GOT in plasma ([1]; alcohol group, FIG. 16a): decreases in GPT and GOT to levels of the control
GPT in plasma ([1]; alcohol group, FIG. 16a): decreases in GPT and GOT to levels of the control
level of blood triglycerides ([1]; alcohol group, FIG. 16b): significantly decreased
weight percentage of liver in body ([1]; alcohol group, FIG. 16d): decreased with high significance
accumulation of alcohol-induced lipid vesicles (Hematoxyllin & Eosin) ([1]; liver tissue): significantly reduced
level of cytokine MCP-1 (ELISA) (MCP-1; FIG. 16c): significantly decreased
expression of the MCP-1 protein (western blotting) (MCP-1; FIG. 16e): decreased to the level of the control
